Laboratory results published in patent US20030194749A1 (priority 2002, published 2003).
Like-named read-outs stand apart in the source and are kept apart here.

Experiments:
[1] = target: PI 3-kinase; details: cited from earlier work; for fold less effective than wortmannin towards PI 3-kinase: relative to wortmannin
[2] = target: T1, DNA-PKcs (Homo sapiens, UniProt P78527); experiment: Streptavidin-sepharose pull-down from nuclear extract, DNA-PKcs; assay type: binding; details: HeLa nuclear extract; 150 μM wortmannin or 1 mM ATP
T1 construct: we used nuclear extract for our pull-down experiments; endogenous in cells
Description: (§1) For the competition with ATP, ATP was directly added to a final concentration of 1 mM ATP.
(§2) To determine which PIK-related kinases could be pulled-down with BW, we performed several affinity precipitations after incubation with BW concentrations ranging from 0.5-50 μM. As controls, we used the […] compound (negative) and nuclear extracts (positive). We probed a Western blot for the precipitation of ATR, ATM and DNA-PKcs and received a pattern of different sensibility that is related to the IC50s observed in vitro. DNA-PKcs is the most sensitive member to precipitation with BW of the PIK-related kinases we tested and can be precipitated at concentrations as low as 0.5 μM. ATM also seems to be more sensitive to precipitation than ATR, and starts to give a signal at 2 μM. ATR is the least sensitive kinase to precipitation tested, and starts to pull-down at 10 μM.
(§3) Therefore, we performed pull-down reactions with 30 μM biotin-wortmannin using HeLa nuclear extract. […] The proteins that were pull-down were analyzed via Western blot detecting DNA-PKcs, ATM and biotin-wortmannin.

[3] = target: T2, ATM (Homo sapiens, UniProt Q13315); experiment: Streptavidin-sepharose pull-down from nuclear extract, ATM; assay type: binding; details: HeLa nuclear extract; 150 μM wortmannin or 1 mM ATP
T2 construct: we used nuclear extract for our pull-down experiments; endogenous in cells
Description: as §1, §2, §3

[4] = target: mTOR (FRAP) (Homo sapiens, UniProt P42345); details: cited from earlier work
[5] = tested on: HEK 293T cells; experiment: Capability to enter intact cells (protein labeling after cell incubation); assay type: cell-based, human; details: 50 μM, 45 min
Description: The media and the inhibitory compound were premixed to reduce toxicity and incubated on the cells for 45 min or 1 h.
After 45 min, the cells were harvested and then lysates were generated. 100 μg of protein was separated on a 5-12.5% gradient gel, transferred to PVDF membrane and either analyzed with α-wortmannin sera or with streptavidin HRP to detect biotin-wortmannin.

[6] = Stability in buffer systems by thin layer chromatography; assay type: physicochemical; details: most conditions tested (not 1 M Tris)
Description: For thin layer chromatography (TLC), Silica gel glass plates (0.25 mm) were used to separate different components in hexane:ethylacetate (1:2) as solvents. Components were visualized by illumination with long wave ultraviolet light and by dipping into an aqueous solution of ceric ammonium molybdate followed by heating.
Tris based (pH 7.5, 8)and Hepes (pH 7.5, 8) based buffer systems were tested for incubations for 30 min at 4° C. and 30° C.

[7] = target: ATR (Homo sapiens, UniProt Q13535); details: Sarkaria et al., 1998; cited from earlier work
Chain of ATR (Q13535 whole entry): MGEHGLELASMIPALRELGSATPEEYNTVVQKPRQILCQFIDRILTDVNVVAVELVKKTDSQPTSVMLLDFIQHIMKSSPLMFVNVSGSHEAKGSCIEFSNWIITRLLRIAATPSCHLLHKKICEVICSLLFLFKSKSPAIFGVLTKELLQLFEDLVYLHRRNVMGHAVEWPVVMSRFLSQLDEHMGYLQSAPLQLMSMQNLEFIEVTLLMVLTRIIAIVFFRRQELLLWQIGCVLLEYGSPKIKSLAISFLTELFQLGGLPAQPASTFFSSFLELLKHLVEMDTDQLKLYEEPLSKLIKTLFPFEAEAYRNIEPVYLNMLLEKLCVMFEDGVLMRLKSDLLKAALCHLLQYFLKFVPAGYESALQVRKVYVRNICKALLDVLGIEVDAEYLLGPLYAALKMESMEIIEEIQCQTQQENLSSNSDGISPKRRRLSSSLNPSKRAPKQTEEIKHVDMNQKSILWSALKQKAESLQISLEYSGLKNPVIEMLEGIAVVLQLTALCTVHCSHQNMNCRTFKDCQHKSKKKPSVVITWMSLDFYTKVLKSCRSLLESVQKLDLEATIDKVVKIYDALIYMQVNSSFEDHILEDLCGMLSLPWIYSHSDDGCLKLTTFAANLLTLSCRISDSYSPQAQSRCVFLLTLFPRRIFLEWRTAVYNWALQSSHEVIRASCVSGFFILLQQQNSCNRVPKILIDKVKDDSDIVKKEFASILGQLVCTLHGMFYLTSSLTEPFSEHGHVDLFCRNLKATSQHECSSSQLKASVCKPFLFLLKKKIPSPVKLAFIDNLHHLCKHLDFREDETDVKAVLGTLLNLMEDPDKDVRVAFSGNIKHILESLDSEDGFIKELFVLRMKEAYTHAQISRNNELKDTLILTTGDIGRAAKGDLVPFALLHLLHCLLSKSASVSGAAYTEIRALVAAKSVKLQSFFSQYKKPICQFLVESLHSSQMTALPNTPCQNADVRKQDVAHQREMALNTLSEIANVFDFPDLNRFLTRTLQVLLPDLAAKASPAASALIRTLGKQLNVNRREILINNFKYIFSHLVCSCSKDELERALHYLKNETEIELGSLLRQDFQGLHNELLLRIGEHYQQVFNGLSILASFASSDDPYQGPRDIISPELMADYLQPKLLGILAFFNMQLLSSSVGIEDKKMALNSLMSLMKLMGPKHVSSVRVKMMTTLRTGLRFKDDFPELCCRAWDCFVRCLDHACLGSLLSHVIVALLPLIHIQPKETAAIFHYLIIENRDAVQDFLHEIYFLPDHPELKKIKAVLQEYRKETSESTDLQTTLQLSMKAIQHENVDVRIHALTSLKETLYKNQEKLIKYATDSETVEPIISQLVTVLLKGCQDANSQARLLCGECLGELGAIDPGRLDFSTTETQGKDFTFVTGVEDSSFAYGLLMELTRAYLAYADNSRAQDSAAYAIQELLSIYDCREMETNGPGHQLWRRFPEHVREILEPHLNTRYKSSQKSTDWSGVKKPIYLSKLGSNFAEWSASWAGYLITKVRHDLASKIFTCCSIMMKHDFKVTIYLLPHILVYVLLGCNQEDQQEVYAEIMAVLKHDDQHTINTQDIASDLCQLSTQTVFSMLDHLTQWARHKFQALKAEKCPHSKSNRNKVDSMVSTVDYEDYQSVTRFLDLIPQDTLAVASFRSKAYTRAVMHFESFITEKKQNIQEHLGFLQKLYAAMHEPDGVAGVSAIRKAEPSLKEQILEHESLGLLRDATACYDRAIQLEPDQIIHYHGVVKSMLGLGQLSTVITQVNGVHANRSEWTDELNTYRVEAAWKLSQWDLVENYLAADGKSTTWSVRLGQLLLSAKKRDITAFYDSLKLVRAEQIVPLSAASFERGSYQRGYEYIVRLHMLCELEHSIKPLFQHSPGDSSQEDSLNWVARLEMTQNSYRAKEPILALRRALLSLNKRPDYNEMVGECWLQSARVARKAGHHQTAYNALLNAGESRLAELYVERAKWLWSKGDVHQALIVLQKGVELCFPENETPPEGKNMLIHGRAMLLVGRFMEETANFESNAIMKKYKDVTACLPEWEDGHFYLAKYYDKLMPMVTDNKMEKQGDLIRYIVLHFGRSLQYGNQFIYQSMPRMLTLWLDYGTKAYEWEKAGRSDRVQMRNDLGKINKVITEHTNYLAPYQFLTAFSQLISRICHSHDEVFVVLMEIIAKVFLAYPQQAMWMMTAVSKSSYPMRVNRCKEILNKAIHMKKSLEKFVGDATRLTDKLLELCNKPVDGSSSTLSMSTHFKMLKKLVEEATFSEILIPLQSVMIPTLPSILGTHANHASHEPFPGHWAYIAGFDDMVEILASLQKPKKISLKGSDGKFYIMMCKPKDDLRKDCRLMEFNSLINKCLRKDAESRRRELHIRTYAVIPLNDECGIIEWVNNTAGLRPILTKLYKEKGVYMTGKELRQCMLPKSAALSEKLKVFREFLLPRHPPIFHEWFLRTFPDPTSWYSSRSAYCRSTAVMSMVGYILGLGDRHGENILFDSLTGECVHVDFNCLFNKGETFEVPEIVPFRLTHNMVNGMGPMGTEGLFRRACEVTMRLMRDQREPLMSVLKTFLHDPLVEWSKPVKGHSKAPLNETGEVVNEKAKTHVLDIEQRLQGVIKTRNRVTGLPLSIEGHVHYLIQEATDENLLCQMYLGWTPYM

[8] = target: T3, Flag-tagged ATR (Homo sapiens, UniProt Q13535); experiment: ATR kinase assay (GST-RAD17 substrate); assay type: biochemical; details: 3-4 experiments, read from a graph
T3 construct: expressed in transfected cells
T3 sequence (Q13535 whole entry): as above
Description: After the incubation, the beads were washed in 500 μl kinase buffer.
ATR kinase assay: ATR precipitates were incubated with 27.5 μl of kinase buffer+1 μl 32P γ-ATP (1 μCi)+1.5 μl GST-RAD17 substrate (1.5 μg) for exactly 15 min at 30° C. The reactions were stopped by adding 10 μl of 6×SDS sample buffer and boiling the sample for 8 min at 95° C.
The dried gel was either exposed overnight to Biomax film or in the phosphoimager cassette for several hours and quantified using the program Image Quant v1.2 from Molecular Dynamics, Sunnyvale, Calif. (USA). Curves were plotted in the program KaleidaGraph v3.5 (Synergy Software, Reading, Pa.) using the Hill equation. […]
After the kinase reactions were carried out, the samples were separated on a 5-12.5% gradient gel. […] Flag-ATR and labeling with biotin-wortmannin were detected by chemiluminescence using α-Flag M5 or streptavidin HRP antibody. The lower half of the gel was stained with coomassie, dried and analyzed by autoradiography.
Analysis of substrate phosphorylation by autoradiography allows evaluation of the kinase activity that remains after incubation with different amounts of biotin-wortmannin. […] In the lower lane, the amount of Flag-tagged ATR was determined by using a Flag specific antibody. This signal was used to normalize for equal loading to generate quantitative data. […]

COCC1OC(=O)c2coc3c2C1(C)C1=C(C3=O)C2CCC(=O)C2(C)CC1O (stereo not shown) [11-O-desacetyl wortmannin]
IC50 [1]: 16.7 nM | fold less effective than wortmannin towards PI 3-kinase [1]: 4 fold | fold less effective than wortmannin towards PI 3-kinase ([1]; listed as 0-11-desacetylwortmannin): about four

Nc1ncnc2c1ncn2[C@@H]1O[C@H](COP(=O)(O)OP(=O)(O)OP(=O)(O)O)[C@@H](O)[C@H]1O [ATP]
effect of pretreatment on pull-down of DNA-PKcs with 30 μM biotin-wortmannin [2]: did not show an effect | effect of pretreatment on pull-down of ATM with 30 μM biotin-wortmannin [3]: did not show an effect

O=c1cc(N2CCOCC2)oc2c(-c3ccccc3)cccc12 [LY294002, 2-(4-morpholinyl)-S-phenyl-4H-1-benzopyran-4-one]
IC50 [4]: ~3 µM

COC[C@H]1OC(=O)c2coc3c2[C@@]1(C)C1=C(C3=O)[C@@H]2CCC(=O)[C@@]2(C)C[C@H]1OC(C)=O [wortmannin, Wortmannin]
capability to enter into intact cells [5]: capable to enter into intact cells | time in large part stable in buffer [6]: at least 30 min | IC50 [7]: 1800 nM | IC50 [8]: 1800 nM
